Tests used:
[1] = xn = mol fraction of the nth substance listed; conditions: x2 = 0; for surface tension liquid-gas: Tensiometer with plate; for viscosity / mass density: 101 kPa, Liquid; for viscosity: Capillary tube (Ostwald / Ubbelohde) method; for mass density: Vibrating tube method
[2] = refractive index (Na D-line) (dimensionless); xn = mol fraction of the nth substance listed; conditions: 101 kPa, Liquid, Standard Abbe refractometry, x2 = 0

O [water] + CN1CCNCC1
Conditions | mass density, [1] [kg/m3] | refractive index, [2] | surface tension liquid-gas, [1] [mN/m] | viscosity, [1] [mPa·s]
293.15 K | – | 1.333 | 72.09 | –
298.15 K | – | 1.333 | – | 0.894
303.15 K | – | 1.332 | 71.27 | 0.8
308.15 K | – | 1.331 | 70.44 | –
313.15 K | – | 1.331 | 69.66 | 0.656
318.15 K | – | 1.331 | 68.83 | –
323.15 K | – | 1.329 | 67.95 | –
325.15 K | 988.03 | – | – | 0.55
328.15 K | – | 1.328 | – | –
333.15 K | 983.2 | 1.327 | 66.23 | 0.47
343.15 K | 977.78 | – | – | 0.409
